# Active and inactive are the calls of the source.
# Assays:
# [1] = molecular target: T1, Carboxy-terminal domain RNA polymerase II polypeptide A small phosphatase 1 (Homo sapiens, UniProt Q9GZU7); assay: CTDSP1 inhibitors, concentration-response, biochemical, absorbance readout, ultra-high-throughput screen actives (AID 540297); format: functional
# T1 sequence (Q9GZU7 whole entry): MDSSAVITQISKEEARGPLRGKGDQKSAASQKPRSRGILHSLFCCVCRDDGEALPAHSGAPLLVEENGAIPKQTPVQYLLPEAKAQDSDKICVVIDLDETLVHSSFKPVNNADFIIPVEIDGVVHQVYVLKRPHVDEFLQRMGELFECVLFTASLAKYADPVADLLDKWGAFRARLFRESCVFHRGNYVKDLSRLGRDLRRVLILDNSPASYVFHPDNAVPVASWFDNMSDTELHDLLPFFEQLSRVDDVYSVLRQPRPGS
# [2] = molecular target: T2, Exodeoxyribonuclease V (Escherichia coli (strain K12), UniProt P04993+P07648+P08394); assay: RecBCD inhibition via phage-restricted bacterial growth – absorbance, V66 E. coli, mutant T4 phage, counter-screen for AddAB inhibitor project, dose response (AID 492957); format: functional, cell-based, Escherichia coli str. K-12 substr. MG1655
# T2 sequence (P04993 whole entry): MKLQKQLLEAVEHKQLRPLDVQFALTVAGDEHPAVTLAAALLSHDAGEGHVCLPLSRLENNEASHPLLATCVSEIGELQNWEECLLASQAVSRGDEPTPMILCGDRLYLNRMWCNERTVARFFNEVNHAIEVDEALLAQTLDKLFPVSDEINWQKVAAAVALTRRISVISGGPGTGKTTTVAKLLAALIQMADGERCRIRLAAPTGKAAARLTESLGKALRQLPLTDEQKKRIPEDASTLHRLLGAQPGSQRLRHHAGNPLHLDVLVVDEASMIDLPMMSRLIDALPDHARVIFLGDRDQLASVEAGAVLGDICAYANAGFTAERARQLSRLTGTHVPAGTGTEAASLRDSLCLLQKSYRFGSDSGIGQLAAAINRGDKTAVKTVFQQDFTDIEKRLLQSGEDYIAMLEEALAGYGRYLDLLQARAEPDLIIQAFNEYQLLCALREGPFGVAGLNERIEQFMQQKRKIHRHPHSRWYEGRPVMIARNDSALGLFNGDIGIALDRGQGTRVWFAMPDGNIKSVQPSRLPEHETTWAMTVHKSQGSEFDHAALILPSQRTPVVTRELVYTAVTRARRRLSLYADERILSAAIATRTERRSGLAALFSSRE
# T2 sequence (P07648 whole entry): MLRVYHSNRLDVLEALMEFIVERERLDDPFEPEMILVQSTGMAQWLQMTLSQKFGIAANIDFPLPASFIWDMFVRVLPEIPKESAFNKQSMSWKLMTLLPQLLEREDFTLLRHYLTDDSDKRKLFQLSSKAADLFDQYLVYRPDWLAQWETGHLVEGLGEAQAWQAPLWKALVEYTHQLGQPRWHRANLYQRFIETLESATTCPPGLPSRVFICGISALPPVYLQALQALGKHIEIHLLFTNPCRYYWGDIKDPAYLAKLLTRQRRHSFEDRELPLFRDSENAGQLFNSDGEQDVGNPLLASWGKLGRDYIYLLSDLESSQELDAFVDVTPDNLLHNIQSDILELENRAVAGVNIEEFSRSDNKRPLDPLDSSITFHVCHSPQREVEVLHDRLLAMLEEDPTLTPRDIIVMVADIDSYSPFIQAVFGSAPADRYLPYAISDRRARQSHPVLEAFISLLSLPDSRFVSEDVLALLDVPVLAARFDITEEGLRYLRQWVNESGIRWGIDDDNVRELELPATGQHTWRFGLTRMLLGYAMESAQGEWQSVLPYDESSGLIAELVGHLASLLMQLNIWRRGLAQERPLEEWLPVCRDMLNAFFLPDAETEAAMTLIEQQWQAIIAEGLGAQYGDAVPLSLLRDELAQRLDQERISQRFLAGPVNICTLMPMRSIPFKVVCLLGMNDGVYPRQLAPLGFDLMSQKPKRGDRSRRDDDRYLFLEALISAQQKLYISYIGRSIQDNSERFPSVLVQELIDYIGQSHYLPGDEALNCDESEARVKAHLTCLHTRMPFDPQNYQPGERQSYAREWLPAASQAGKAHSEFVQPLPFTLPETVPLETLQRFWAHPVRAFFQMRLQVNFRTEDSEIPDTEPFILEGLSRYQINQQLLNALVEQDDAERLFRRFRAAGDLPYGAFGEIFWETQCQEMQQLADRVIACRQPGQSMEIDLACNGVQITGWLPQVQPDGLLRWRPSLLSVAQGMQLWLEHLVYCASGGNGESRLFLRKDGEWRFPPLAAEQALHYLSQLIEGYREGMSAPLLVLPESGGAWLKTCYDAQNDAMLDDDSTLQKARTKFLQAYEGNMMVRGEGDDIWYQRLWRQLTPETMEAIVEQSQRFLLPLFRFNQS
# T2 sequence (P08394 whole entry): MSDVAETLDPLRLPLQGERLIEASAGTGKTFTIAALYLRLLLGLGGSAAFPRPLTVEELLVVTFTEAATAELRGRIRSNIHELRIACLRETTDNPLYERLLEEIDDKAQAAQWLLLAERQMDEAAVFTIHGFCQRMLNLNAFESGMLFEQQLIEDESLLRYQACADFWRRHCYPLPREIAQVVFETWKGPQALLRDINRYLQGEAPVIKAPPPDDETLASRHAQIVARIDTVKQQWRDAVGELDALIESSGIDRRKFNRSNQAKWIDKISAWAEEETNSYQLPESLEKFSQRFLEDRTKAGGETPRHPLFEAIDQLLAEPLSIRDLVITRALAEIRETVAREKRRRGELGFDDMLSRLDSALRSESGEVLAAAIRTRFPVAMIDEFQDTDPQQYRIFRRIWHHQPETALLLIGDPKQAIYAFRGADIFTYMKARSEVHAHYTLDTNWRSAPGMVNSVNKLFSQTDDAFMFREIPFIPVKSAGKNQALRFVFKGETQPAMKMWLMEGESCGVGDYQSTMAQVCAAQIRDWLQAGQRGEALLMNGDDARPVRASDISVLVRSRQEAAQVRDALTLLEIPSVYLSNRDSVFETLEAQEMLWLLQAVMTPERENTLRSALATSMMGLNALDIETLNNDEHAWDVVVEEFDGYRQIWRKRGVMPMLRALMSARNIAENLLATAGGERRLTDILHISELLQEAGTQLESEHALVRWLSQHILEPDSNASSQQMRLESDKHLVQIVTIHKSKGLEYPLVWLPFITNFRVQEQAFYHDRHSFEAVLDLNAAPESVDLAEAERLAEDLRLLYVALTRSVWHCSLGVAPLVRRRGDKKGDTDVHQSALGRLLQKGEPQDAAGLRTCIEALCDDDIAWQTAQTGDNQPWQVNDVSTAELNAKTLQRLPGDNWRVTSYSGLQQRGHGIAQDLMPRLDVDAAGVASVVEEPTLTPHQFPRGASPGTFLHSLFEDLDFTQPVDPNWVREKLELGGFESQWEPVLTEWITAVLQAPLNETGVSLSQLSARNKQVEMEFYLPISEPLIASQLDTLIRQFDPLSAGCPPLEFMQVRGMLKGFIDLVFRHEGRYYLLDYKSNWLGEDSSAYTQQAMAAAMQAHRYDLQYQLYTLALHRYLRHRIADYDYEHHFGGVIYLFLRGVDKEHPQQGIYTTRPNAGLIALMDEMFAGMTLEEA
# [3] = Counterscreen for AddAB inhibitors: absorbance-based bacterial cell-based high throughput dose response assay for inhibitors of bacterial viability. [Related pubchem assays (depositor defined):AID435030, AID449728, AID449731, AID488942, AID488955, AID488956]; format: functional
# [4] = molecular target: DNA dC->dU-editing enzyme APOBEC-3G (Homo sapiens, UniProt Q9HC16); format: functional;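 also: Dose-response counterscreen measuring inhibition of APOBEC3G DNA deaminase activity, run while confirming APOBEC3A inhibitors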
# [5] = molecular target: DNA dC->dU-editing enzyme APOBEC-3A (Homo sapiens, UniProt P31941); assay: Dose Response confirmation of small molecule APOBEC3A DNA Deaminase Inhibitors via a fluorescence-based single-stranded DNA deaminase assay. [Related pubchem assays (depositor defined):AID493011, AID493024]; format: functional
# [6] = microbe, parasite or virus in culture; format: functional; conditions: Mycobacterium tuberculosis
# [7] = molecular target: T3, Short transient receptor potential channel 4 (Mus musculus, UniProt Q9QUQ5); assay: calcium entry via TRPC4 opening agents – cell-based, HEK293 TRPC4/mu-opioid, Fluo-4 calcium, dose response (AID 434937); format: functional
# T3 sequence (Q9QUQ5 whole entry): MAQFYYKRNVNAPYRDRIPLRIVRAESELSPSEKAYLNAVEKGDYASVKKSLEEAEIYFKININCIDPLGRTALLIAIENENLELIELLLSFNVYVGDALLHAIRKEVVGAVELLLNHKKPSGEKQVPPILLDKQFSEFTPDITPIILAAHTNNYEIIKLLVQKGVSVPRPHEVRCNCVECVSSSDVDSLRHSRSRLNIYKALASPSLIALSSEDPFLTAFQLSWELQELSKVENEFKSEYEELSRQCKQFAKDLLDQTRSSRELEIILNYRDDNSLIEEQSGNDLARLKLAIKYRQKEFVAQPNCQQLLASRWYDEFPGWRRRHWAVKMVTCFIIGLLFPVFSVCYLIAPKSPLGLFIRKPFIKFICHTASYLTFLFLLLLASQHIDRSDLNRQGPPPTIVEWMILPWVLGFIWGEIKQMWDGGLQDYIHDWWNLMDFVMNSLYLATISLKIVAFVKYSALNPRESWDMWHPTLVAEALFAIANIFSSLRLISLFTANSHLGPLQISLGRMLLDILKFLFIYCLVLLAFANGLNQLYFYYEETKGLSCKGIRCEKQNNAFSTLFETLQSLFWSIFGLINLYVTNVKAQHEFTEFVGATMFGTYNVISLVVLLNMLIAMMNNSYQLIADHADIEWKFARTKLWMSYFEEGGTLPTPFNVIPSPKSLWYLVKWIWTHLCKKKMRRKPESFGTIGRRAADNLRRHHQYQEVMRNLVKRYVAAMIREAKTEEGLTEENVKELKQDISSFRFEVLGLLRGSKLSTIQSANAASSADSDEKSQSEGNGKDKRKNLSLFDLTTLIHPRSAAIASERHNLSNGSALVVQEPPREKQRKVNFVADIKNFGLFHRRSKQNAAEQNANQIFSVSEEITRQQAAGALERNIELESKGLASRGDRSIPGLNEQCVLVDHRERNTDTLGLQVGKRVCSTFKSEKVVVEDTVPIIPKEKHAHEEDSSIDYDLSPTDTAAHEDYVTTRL
# [8] = molecular target: Heat shock protein HSP 90-alpha (Homo sapiens, UniProt P07900); format: functional, organism-based
# [9] = molecular target: T3, Short transient receptor potential channel 4; assay: block of DAMGO-driven TRPC4 calcium entry – cell-based, HEK293 TRPC4/mu-opioid, Fluo-4 calcium, dose response (AID 434942); format: functional;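 also: potency of inhibitors blocking the TRPC4 calcium response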
# [10] = intracellular Trypanosoma cruzi inhibitors in host cells – cell-based, plate reader, cherry-pick samples, set 3, dose response (AID 651818); format: functional;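 also: compounds incubated with infected cells for about four days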
# Chain of DNA dC->dU-editing enzyme APOBEC-3G (Q9HC16 whole entry): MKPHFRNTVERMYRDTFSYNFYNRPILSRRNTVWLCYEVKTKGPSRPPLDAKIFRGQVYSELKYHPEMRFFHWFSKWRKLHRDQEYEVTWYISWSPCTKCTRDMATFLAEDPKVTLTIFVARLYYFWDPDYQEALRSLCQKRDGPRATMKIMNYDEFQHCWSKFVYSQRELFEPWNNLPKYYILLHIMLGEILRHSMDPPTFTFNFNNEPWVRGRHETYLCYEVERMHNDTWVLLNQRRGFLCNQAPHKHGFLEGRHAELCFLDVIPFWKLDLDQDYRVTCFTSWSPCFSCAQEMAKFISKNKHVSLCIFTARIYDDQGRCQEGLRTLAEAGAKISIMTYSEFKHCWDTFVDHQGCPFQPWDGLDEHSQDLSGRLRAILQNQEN
# Chain of DNA dC->dU-editing enzyme APOBEC-3A (P31941 whole entry): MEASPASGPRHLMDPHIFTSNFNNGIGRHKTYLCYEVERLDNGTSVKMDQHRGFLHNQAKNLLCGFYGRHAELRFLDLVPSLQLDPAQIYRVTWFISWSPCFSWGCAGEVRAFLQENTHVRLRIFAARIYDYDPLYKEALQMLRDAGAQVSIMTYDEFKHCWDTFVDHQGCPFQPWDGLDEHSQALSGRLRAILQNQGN
structure (smiles),measurement,setting,value
COC(=O)Cn1c(=O)c2c(n(Cc3ccccc3)c1=O)=N/C(=C/c1ccc(Br)cc1)C=2O,IC50,[1],5.15 µM (active)
COc1ccc(NC(=O)CSc2nnc(-c3ccc(F)cc3)o2)cn1,IC50,[2],> 119 µM (inactive)
same,IC50,[3],> 119 µM (inactive)
CCCCn1nc(NC(=O)COC)c2cc3ccc(C)cc3nc21,IC50,[4],5 µM (active)
same,IC50,[5],3.49 µM (active)
O=C(Nc1nc2c(s1)CCCC2)C1CCCN1C(=O)c1cccs1 (stereo unspecified),IC50,[4],15.8 µM (active)
same,IC50,[5],10 µM (active)
CCC(C)NC(=O)c1cn(CC)c2cc(N3CCN(C(=O)c4ccco4)CC3)c(F)cc2c1=O (stereo unspecified),CC50,[6],> 40 µM (active)
same,IC50,[2],89.9 µM (inactive)
same,IC50,[3],22 µM (inactive)
CCOc1ccccc1OCC(=O)Nc1cc(S(=O)(=O)N2CCCCC2)ccc1N1CCN(CC)CC1,IC50,[4],6.44 µM (active)
same,EC50,[7],4.22 µM (active)
same,IC50,[5],5.85 µM (active)
COc1cc(OC)c(CN2CCC(Cc3ccccc3)CC2)cc1Br,EC50,[7],2.66 µM (active)
Cc1cc(Cl)ccc1N=C(S)NCc1ccccc1Cl,IC50,[2],> 119 µM (inactive)
same,IC50,[3],> 119 µM (inactive)
Cc1ccc(C)c(NC(=O)CSc2sc3c(O)cc(=O)[nH]c3c2C#N)c1,IC50,[1],6.09 µM (active)
O=C(O)c1cn(-c2ccc(N3CCCC3)c(F)c2)c2c(F)c(F)c(F)cc2c1=O,IC50,[2],> 119 µM (inactive)
same,AC50,[8],4.37 µM (active)
same,IC50,[3],64.9 µM (inactive)
CN(C)C(CNC(=O)C1CCN(S(=O)(=O)c2cccc(C(F)(F)F)c2)CC1)c1ccccc1 (stereo unspecified),EC50,[9],0.421 µM (active)
same,EC50,[7],0.376 µM (active)
Cc1ccc(C)c(OCCC(=O)OCC(=O)N2c3ccccc3NC(=O)C2(C)C)c1,IC50,[4],10.4 µM (active)
same,IC50,[5],11 µM (active)
C[C@@H]1CCCCO[C@H](CN(C)Cc2ccc(Cl)c(Cl)c2)[C@@H](C)CN([C@H](C)CO)C(=O)c2cc(NS(=O)(=O)c3ccc(F)cc3)ccc2O1,AC50,[10],4.79 µM (active)
COc1ccc(S(=O)(=O)N(C)C[C@@H]2Oc3c(NS(=O)(=O)c4ccccc4)cccc3C(=O)N([C@@H](C)CO)C[C@@H]2C)cc1,AC50,[10],12.9 µM (active)
C[C@@H]1CN([C@H](C)CO)C(=O)Cc2cc(NC(=O)Nc3cccc4ccccc34)ccc2O[C@@H]1CN(C)Cc1ccc(Oc2ccccc2)cc1,AC50,[10],2.15 µM (active)
C[C@H]1CN([C@@H](C)CO)C(=O)c2cccc(NC(=O)c3nc4ccccc4s3)c2O[C@H]1CN(C)Cc1ccc(C(=O)Nc2ccccc2N)cc1,AC50,[10],2.97 µM (active)
O=C(COc1cccc([N+](=O)[O-])c1)N/N=C/c1ccco1,IC50,[1],13.9 µM (active)
Cc1cc(NS(=O)(=O)c2ccc(N)cc2)no1 [SULFAMETHOXAZOLE],IC50,[2],> 119 µM (inactive)
same,IC50,[3],29.2 µM (inactive)

# Source: ChEMBL document CHEMBL1201862, “PubChem BioAssay data set” (2004)
